Consider 14 molecules from ChEMBL document CHEMBL5528080, “Discovery of RORγ Allosteric Fluorescent Probes and Their Application: Fluorescence Polarization, Screening, and Bioimaging” (J Med Chem, 2024).

A value given as a limit tells only on which side of the number the result lay.

What all share (test): biochemical
Experiment [1] addresses T1, Nuclear receptor ROR-gamma (Homo sapiens, UniProt P51449).
T1 sequence (P51449 whole entry): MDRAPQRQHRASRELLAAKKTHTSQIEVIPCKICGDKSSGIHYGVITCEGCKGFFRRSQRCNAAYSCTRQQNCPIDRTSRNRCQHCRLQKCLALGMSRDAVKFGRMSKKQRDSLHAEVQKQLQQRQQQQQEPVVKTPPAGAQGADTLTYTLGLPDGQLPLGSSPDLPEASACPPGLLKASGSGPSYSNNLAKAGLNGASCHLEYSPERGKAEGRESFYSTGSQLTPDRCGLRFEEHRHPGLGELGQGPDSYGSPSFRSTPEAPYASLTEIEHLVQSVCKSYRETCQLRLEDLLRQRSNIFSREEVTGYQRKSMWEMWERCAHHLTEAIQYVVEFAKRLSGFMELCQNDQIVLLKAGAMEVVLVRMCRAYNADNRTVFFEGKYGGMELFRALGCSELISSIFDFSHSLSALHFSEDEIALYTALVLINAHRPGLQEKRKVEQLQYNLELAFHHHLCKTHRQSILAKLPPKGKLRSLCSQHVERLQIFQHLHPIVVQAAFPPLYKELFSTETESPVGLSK
Description: Allosteric inhibition of N-terminal his6-tagged human recombinant RORgamma LBD (261 to 518 residues) expressed in Sf9 insect cells incubated for 30 mins by fluorescence polarization assay

Experiment [2] addresses T1, Nuclear receptor ROR-gamma. This is another data set of the same source.
Description: Allosteric inhibition of N-terminal his6-tagged human recombinant RORgamma LBD (261 to 518 residues) expressed in Sf9 insect cells assessed as inhibition constant incubated for 30 mins by fluorescence polarization assay
For experiment [3], the target named is T1, Nuclear receptor ROR-gamma. This is another data set of the same source.
Description: Binding affinity to N-terminal his6-tagged human recombinant RORgamma LBD (261 to 518 residues) expressed in Sf9 insect cells assessed as dissociation constant by SPR analysis
In experiment [4] the target is T1, Nuclear receptor ROR-gamma. The source holds these as a separate data set.
Description: Binding affinity to N-terminal his6-tagged human recombinant RORgamma LBD (261 to 518 residues) expressed in Sf9 insect cells assessed as dissociation constant incubated for 30 mins by fluorescence polarization assay

As to `O=C(O)c1ccc(-n2cc(C(=O)c3c(Cl)cccc3Cl)c3ccccc32)s1`, the half-inhibitory concentration (IC50) – broadly, the midpoint of a concentration-inhibition curve – in experiment [1] is 0.95 µM. In experiment [2], the affinity corresponds to a Ki of 0.51 µM. The like results for `Cc1cccc(C(=O)c2cn(-c3ccc(C(=O)O)s3)c3ccccc23)c1` were, in that order, 149 µM and 79.8 µM.

`Cc1ccc(C(=O)c2cn(-c3ccc(C(=O)O)s3)c3ccccc23)cc1` returned a 50% inhibitory concentration (IC50) in experiment [1] of 79.9 µM. Also, affinity in experiment [2] was put at a Ki of 42.7 µM. On to `O=C(O)c1ccc(-c2nn(C(=O)c3c(Cl)cccc3C(F)(F)F)c3cc(C(=O)NCCOCCOCCNC(=S)Nc4ccc5c(c4)C(=O)OC54c5ccc(O)cc5Oc5cc(O)ccc54)ccc23)cc1`, for which the equilibrium dissociation constant (Kd) (commonly a measure of binding affinity in units of concentration) in experiment [3] was 0.28 µM; in experiment [4], 0.0517 µM. For the molecule `O=C(O)c1ccc(-n2cc(C(=O)c3c(Cl)cccc3C(F)(F)F)c3ccccc32)s1`, the half-maximal inhibitory concentration (IC50) in experiment [1] was found to be 1.7 µM. In addition, the affinity in experiment [2] corresponds to a Ki of 0.91 µM. Take `O=C(O)c1ccc(-c2nn(C(=O)c3ccccc3)c3ccccc23)cc1`: in experiment [2], the inhibitory constant (Ki) (commonly a measure of affinity in units of concentration, obtained from inhibition or displacement) was 1.11 µM.

Take `O=C(O)c1ccc(-n2cc(C(=O)c3ccccc3)c3ccccc32)s1`: in experiment [1], the IC50 was 19.3 µM. In experiment [2], this molecule came in with a Ki of 102 µM. In the same order, the values of `Cc1ccccc1C(=O)c1cn(-c2ccc(C(=O)O)s2)c2ccccc12` are 33 µM and 17.6 µM. In the same order, the values of `O=C(O)c1ccc(-n2cc(C(=O)c3ccc(Cl)cc3)c3ccccc32)s1` are 39.9 µM and 21.3 µM. `O=C(O)c1ccc(-n2cc(C(=O)c3ccccc3Cl)c3ccccc32)s1` displayed a half-maximal inhibitory concentration (IC50) in experiment [1] of 13.5 µM. This molecule registered a Ki in experiment [2] of 7.2 µM.

In experiment [1], `Cc1csc(-n2cc(C(=O)c3c(Cl)cccc3Cl)c3ccccc32)c1` gave an IC50 of over 1000 µM. In experiment [1], `Cc1cc(-n2cc(C(=O)c3c(Cl)cccc3Cl)c3ccccc32)sc1C(=O)O` showed a 50% inhibitory concentration (IC50) of 3.1 µM. In addition, the affinity in experiment [2], expressed as Ki, was 1.7 µM.

`O=C(O)c1ccc(-n2cc(C(=O)c3cccc(Cl)c3)c3ccccc32)s1` had a concentration for half-maximal inhibition (IC50) in experiment [1] of 28.5 µM. The same molecule came in with an inhibition constant (Ki) in experiment [2] of 15.2 µM. The like results for `O=C(O)c1ccc(-n2cc(C(=O)c3c(Cl)cccc3Cl)c3ccccc32)cc1` were, in that order, 0.009 µM and 0.005 µM.
